Consider six compounds from US9096601B2 (CSPC Zhongqi Pharmaceutical Technology (Shijiazhuang) Co., …, priority 2010, dated 2015).

Molecules are shown by their SMILES. pIC50: −log10 of the molar value. Bounds are passed on as bounds.

Assay in all cases: In-vitro tumor cell proliferation inhibition, MTT
Holding throughout (type): cell-based, human

Assay [1] deals with liver cancer cell strain Hep G2. As to conditions: 72 hours, read-out: HEPG2 (IC50). From the text: (§1) The object of this assay was to test the inventive compounds for the inhibitory activity of in-vitro tumor cell proliferation. The MTT (tetreamethyl-azo-zole-salt) colorimetric method was used in this assay.
(§2) Human non-small cell lung carcinoma cell strains HCC827, PC-9, H1975 (EGFR L858R/T790M mutation) and H292 (EGFR WT), and other tumor type cell strains, including human acute myelogenous leukemia cell strain MV4-11, human chronic granulocytic leukemia cell strain K562, human squamous cell carcinoma cell strain A431, human breast carcinoma cell strains MDA-MB-468 and BT 474, human colon cancer cell strains SW480, HCT116 and SW620, human liver cancer cell strain Hep G2, human gastric cancer cell strain MK-45, and human malignant melanoma cell strain A375 used in this assay were all purchased from ATCC company, USA and kept in the laboratory. All of the above-mentioned non-small cell lung carcinoma cell strains and the breast carcinoma cell strain BT 474 were cultured with a RPMI-1640 complete culture medium containing 10% fetal bovine serum, 100 U/ml penicillin and 100 μg/ml streptomycin under 5% CO2 and at 37° C. The other cell strains were cultured with a DMEM complete culture medium containing 10% fetal bovine serum (having a MV4-11 cell content of 20%), 100 U/ml penicillin and 100 μg/ml streptomycin under 5% CO2 and 37° C.
(§3) A cell suspension having a cell concentration of 1-2×10^4 cells/ml was treated with a complete cell culture solution to adjust the cell concentration, wherein the cell concentrations for HCC827 and MV4-11 were adjusted to 6×10^4 cells/ml and 1×10^5 cells/ml respectively. The cell suspension was inoculated in a 96-well plate with 200 μl cell suspension/well and cultured overnight. Next day, the supernatant was drawn off and discarded. Then, the cells were treated with the tested compounds in a gradient concentration respectively. In the meanwhile, a negative control group free of the drug substance and an isovolumetric solvent control group (having a DMSO concentration of 1%) were used. The triplicate wells were used for each of dose groups. The culturing was conducted at 37° C. under 5% CO2. After 72 hours, […] having a concentration of 5 mg/ml was added to each of wells. The culturing was further conducted for 2-4 hours. The supernatant was discarded. Then […] was added to each of wells. The contents in the well were mixed homogenously by oscillation for 15 minutes. The absorbance (A) value was measured with a microplate reader at λ=570 nm (the A value is in the direct proportion to the number of living cells) and averaged. The relative cell proliferation inhibitory rate is (A570 control-group−A570 dose-group)/A570 control-group×100%. The assay was repeated for at least three times. The data was expressed as number average. The statistical data were analyzed using t-test. P<0.05 was considered significant. The cell proliferation inhibition of the following compounds was expressed as IC50 or inhibitory rate.

Assay [2] concerns breast carcinoma cell strain BT474. As to conditions: 72 hours.
Description: as §1, §2, §3

For assay [3], the system named is gastric cancer cell strain MK-45. As to conditions: 72 hours, read-out: MK45 (IC50).
Description: as §1, §2, §3

The subject of assay [4] is colon cancer cell strain SW480. As to conditions: 72 hours.
Description: as §1, §2, §3

Assay [5] deals with colon cancer cell strain HCT116. As to conditions: 72 hours.
Description: as §1, §2, §3

The test system of assay [6] is squamous cell carcinoma cell strain A431. As to conditions: 72 hours.
Description: as §1, §2, §3

The subject of assay [7] is breast carcinoma cell strain MDA-MB-468. As to conditions: 72 hours.
Description: as §1, §2, §3

Assay [8] concerns malignant melanoma cell strain A375. As to conditions: 72 hours.
Description: as §1, §2, §3

Assay [9] has as its system acute myelogenous leukemia cell strain MV4-11. As to conditions: 72 hours.
Description: as §1, §2, §3

Assay [10] concerns chronic granulocytic leukemia cell strain K562. As to conditions: 72 hours.
Description: as §1, §2, §3

Assay [11] concerns colon cancer cell strain SW620. As to conditions: 72 hours.
Description: as §1, §2, §3

The test system of assay [12] is non-small cell lung carcinoma cell strain HCC827. As to conditions: 72 hours. As for the experimental part: as §1
(§4) All of the above-mentioned non-small cell lung carcinoma cell strains and the breast carcinoma cell strain BT 474 were cultured with a RPMI-1640 complete culture medium containing 10% fetal bovine serum, 100 U/ml penicillin and 100 μg/ml streptomycin under 5% CO2 and at 37° C. The other cell strains were cultured with a DMEM complete culture medium containing 10% fetal bovine serum (having a MV4-11 cell content of 20%), 100 U/ml penicillin and 100 μg/ml streptomycin under 5% CO2 and 37° C.
as §3

In assay [13] the test system is non-small cell lung carcinoma cell strain PC-9 (EGFR delE746-A750 deletion mutation). As to conditions: 72 hours. As for the experimental part: as §1, §4, §3
For assay [14], the system named is non-small cell lung carcinoma cell strain H1975 (EGFR L858R/T790M mutation). As to conditions: 72 hours. Here is the method:
as §1, §4, §3

Assay [15] concerns non-small cell lung carcinoma cell strain H292 (EGFR WT). As to conditions: 72 hours. As for the experimental part: as §1, §4, §3

What is called pIC50 is −log10 of the IC50, conventionally taken in molar units. For the compound `CN1CCN(c2ccc(Nc3ncc4nc(Nc5cccc(Cl)c5)n(C5CCCC5)c4n3)cc2)CC1` [Compounds 8-52], the negative-log IC50 (pIC50) in assay [1] is 5.14; in [2], 6.78; in assay [3], 6.34; in assay [4], 5.34; in assay [5] it was 5.23; in assay [6] it was 7.10. In addition, the pIC50 in assay [7] is 6.13; in assay [8] it was 6.01; in [9] it was 6.19; in assay [10] it was 6.83; in [11] it was 5.80; in assay [12] it was 9.52. Besides, the pIC50 in assay [13] was 9.22; in assay [14], 6.57; in assay [15], 8.40.

`Cc1cccc(Nc2nc3cnc(Nc4ccc(N5CCN(C)CC5)cc4)nc3n2C2CCCC2)c1` [Compounds 8-53]: the negative-log IC50 (pIC50) in assay [1] is less than 5.00; in assay [2] it was 5.82; in [3], 6.25; in [4] it was 5.38; in [5], less than 5.00; in [6], 6.60. Further, the pIC50 in assay [7] is 6.21; in assay [8], 5.09; in [9] it was 6.05; in assay [10], 7.02; in assay [11], 5.67; in [12], 9.70. The negative logarithm of the IC50 (pIC50) in assay [13] was 9.70; in assay [14], 6.26; in [15], 8.39.

For `CN1CCN(c2ccc(Nc3ncc4nc(Nc5ccc(Br)cc5)n(C5CCCC5)c4n3)cc2)CC1` [Compounds 8-43], the pIC50 in assay [1] was 5.23; in assay [2] it was 5.74; in assay [3] it was 6.63; in assay [4], 5.24; in [5], 5.59; in [6] it was 6.31. For the same compound, the pIC50 is 5.99 in assay [7]; 5.72 in assay [8]; 7.67 in assay [9]; 6.91 in [10]; 5.24 in assay [11]; 9.52 in [12]. For the same compound, the figures for the negative-log IC50 (pIC50) in assay [13], in assay [14] and in assay [15] were 7.28, 6.64 and 6.99, respectively.

On to `C#Cc1cccc(Nc2nc3cnc(Nc4ccc(N5CCN(C)CC5)cc4)nc3n2C2CCCC2)c1` [Compounds 8-46], for which the negative-log IC50 (pIC50) was less than 5.00 in [1]; 6.10 in [2]; 6.38 in assay [3]; 5.40 in assay [4]; 5.04 in assay [5]; 6.37 in assay [6]. Also, the negative-log IC50 (pIC50) in assay [7] was 6.12; in assay [8] it was 6.40; in assay [9], 5.33; in assay [10], 6.60; in assay [11], 5.44; in assay [12], 9.52. Moreover, the pIC50 in assay [13] is 8.46; in assay [14] it was 6.11; in assay [15] it was less than 5.00.

As to `COCCOc1ccc(Nc2ncc3nc(Nc4ccccc4)n(C4CCCC4)c3n2)cc1` [Compounds 8-56], the negative-log IC50 (pIC50) in assay [1], in [2], in [3], in [4], in assay [5] and in assay [6] was less than 5.00 in each case. Moreover, the pIC50 in [7] is less than 5.00; in assay [8], less than 5.00; in assay [9] it was 5.35; in [10], less than 5.00; in assay [11], less than 5.00; in assay [12], 9.22. Further, the pIC50 in [13] was 8.15; in [14], less than 5.00; in assay [15], 7.09.

For `CC(C)n1c(Nc2ccc(Cl)nc2)nc2cnc(Nc3ccc(N4CCN(C)CC4)cc3)nc21` [Compounds 8-41], the negative-log IC50 (pIC50) is 5.66 in assay [1]; 5.68 in assay [2]; 5.48 in assay [3]; 5.27 in assay [4]; 5.27 in assay [5]; 5.56 in assay [6]. In addition, the negative-log IC50 (pIC50) in assay [7] was 5.35; in assay [8] it was less than 5.00; in assay [9], 5.71; in assay [10], 6.84; in assay [11] it was 5.67; in assay [12], 7.78. Besides, the negative logarithm of the IC50 (pIC50) in assay [13] was 6.68; in assay [14] it was 6.30; in assay [15], 6.57.
